“Also recorded” adds a separate entry of the source. Read-outs that look alike come from different tables or passages of the source.
What was measured:
[1] = published by FDA as of September 4, 2024, ref FDA, 2024a; cited from earlier work
[2] = PC1 most potent, PC5 least potent; ref FDA, 2024a; cited from earlier work
[3] = system: Salmonella typhimurium TA1535; experiment: Preincubation Ames test, strain TA1535; type: cell-based; details: for Effectiveness of time of preincubation for most effective S9 / More effective %S9 in S9 mix of more effective S9 (H or R) / Effectiveness of hamster vs. rat S9s for each positive strain: strain TA1535; for Effectiveness of time of preincubation for most effective S9: 30 vs 60 min; for Mutagenic response in TA1535: any activation condition and preincubation time; for More effective %S9 in S9 mix of more effective S9 (H or R): 10% vs 30% S9 in the S9 mix; for Effectiveness of hamster vs. rat S9s for each positive strain: H = hamster liver S9, R = rat liver S9
[4] = system: Salmonella typhimurium TA100; experiment: Preincubation Ames test, strain TA100; type: cell-based; details: for Effectiveness of time of preincubation for most effective S9: 30 vs 60 min; for Effectiveness of hamster vs. rat S9s for each positive strain: H = hamster liver S9, R = rat liver S9
[5] = system: E. coli WP2 uvrA (pKM101); experiment: Preincubation Ames test, strain WP2 uvrA; type: cell-based, Escherichia coli; details: for Effectiveness of time of preincubation for most effective S9 / Effectiveness of hamster vs. rat S9s for each positive strain: strain WP2 uvrA (pKM101); for Effectiveness of time of preincubation for most effective S9: 30 vs 60 min; for Mutagenic response in WP2 uvrA (pKM101): any activation condition and preincubation time; for Effectiveness of hamster vs. rat S9s for each positive strain: H = hamster liver S9, R = rat liver S9
[6] = system: Salmonella typhimurium TA98; experiment: Preincubation Ames test, strain TA98; type: cell-based; details: for Effectiveness of time of preincubation for most effective S9: 30 vs 60 min; for Direct-acting mutagenicity in TA98: no exogenous metabolic activation (no S9)
[7] = system: Salmonella typhimurium TA1537; experiment: Preincubation Ames test, strain TA1537; details: strain TA1537; 30 vs 60 min
[8] = system: Salmonella typhimurium tester strains TA98, TA100, TA1535, and TA1537, and Escherichia coli strain WP2 uvrA (pKM101); experiment: Preincubation Ames test, five tester strains; type: cell-based; details: for Effect of length of preincubation on positive responses: 30 min vs 60 min, over all strains
Ames tester strains = details: cited from earlier work
[9] = cited from earlier work
[10] = system: CHO, V79, L5178Y/Tk+/−, TK6, HepaRG cells; details: cell lines as named in the value; ref as given in Table 2 Notes; cited from earlier work
[11] = with S9 activation, listed as N-nitroso-propranolol
[12] = published/posted results, ref representative Ames references of Table 2
[13] = listed as N-nitroso-N-ethylaniline

SMILES | AI limit [1] [ng/day] | CPCA Potency Category (PC) [2] | Effectiveness of time of preincubation for most effective S9 [3] | Effectiveness of time of preincubation for most effective S9 ([4]; strain TA100) | Effectiveness of time of preincubation for most effective S9 [5] | further results
CN(C[C@H](O)c1cccc(O)c1)N=O [NDSRI-13, N-[(2R)-2-Hydroxy-2-(3-hydroxyphenyl)ethyl)-N-methylnitrous amide] | 100 | PC2 | – | – | – | –
C[C@H]1CN(N=O)CCc2ccc(Cl)cc21 [NDSRI-14, (5R)-7-Chloro-5-methyl-3-nitroso-1,2,4,5-tetrahydro-3-benzazepine] | – | – | 60min = 30min | 60min = 30min | 60min = 30min | Effectiveness of time of preincubation for most effective S9 ([6]; strain TA98): 60min = 30min
O=NN1CC2CC(C1)c1cc3nccnc3cc12 [NDSRI-15, 8-Nitroso-7,8,9, 10-tetrahydro-6H-6, 10-methanoazepino[4,5-g]quinoxaline] | 400 | PC3 | 60min ≥30min | 60min = 30min | 60min = 30min | Effectiveness of time of preincubation for most effective S9 [7]: 60min ≥30min; Effect of length of preincubation on positive responses [8]: benefited from a preincubation of 60 min compared with 30 min; Effectiveness of hamster vs. rat S9s for each positive strain ([4]; strain TA100): H only; Effectiveness of time of preincubation for most effective S9 ([6]; strain TA98): 60min ≥30min
CN(CCOC(c1ccccc1)c1ccccc1)N=O [NDSRI-16, N-(2-(Benzhydryloxy)ethyl)-N-methylnitrous amide] | – | – | 60min = 30min | 60min = 30min | 60min >30min | Effect of length of preincubation on positive responses [8]: possibly N-nitroso-desmethyl-diphenhydramine benefited from a preincubation of 60 min compared with 30 min
CC(C)N(CC(O)COc1cccc2ccccc12)N=O (centres unmarked) [NDSRI-17, N-(2-Hydroxy-3-naphthalen-1-yloxypropyl)-N-propan-2-ylnitrous amide] | 1500 | PC4 | 60min = 30min | 60min = 30min | – | S9-mediated mutagenicity in TA1535 [3, 11]: mutagenic; Ames response (all S9-mediated except where noted) (Ames tester strains; [12]): Positive; direct-acting in TA98; S9-mediated mutagenicity in TA100 [4, 11]: mutagenic; Direct-acting mutagenicity in TA98 [6]: b Direct acting mutagen in TA98.; Direct-acting mutagenicity in TA98 ([6]; listed as N-nitroso-propranolol): direct acting mutagen; also recorded: direct-acting mutagenicity of N-nitroso-propranolol was limited to TA98; Effectiveness of time of preincubation for most effective S9 ([6]; strain TA98): 60min = 30min
CN(CCC=C1c2ccccc2CCc2ccccc21)N=O [NDSRI-18, N-Methyl-N-[3-(2-tricyclo[9.4.0.03,8]pentadeca-1 (15),3,5,7,11,13-hexaenylidene)propyl]nitrous amide] | – | – | 60min = 30min | 60min = 30min | 60min = 30min | –
O=NN(c1ccccc1CC(=O)O)c1c(Cl)cccc1Cl [NDSRI-19, 2-[2-(2,6-Dichloro-N-nitrosoanilino)phenyl]acetic acid] | 1500 | – | – | – | – | –
CN(CCC(Oc1cccc2ccccc12)c1cccs1)N=O (centres unmarked) [NDSRI-20, N-Methyl-N-(3-naphthalen-1-yloxy-3-thiophen-2-ylpropyl) nitrous amide] | 100 | – | 60min = 30min | 30min >60min | 60min = 30min | Ames response (all S9-mediated except where noted) (Ames tester strains; [12]): Positive; Mutagenicity in TGR assay ([9]; species as in value, ref as given in Table 2 Notes): Interim AI limit currently in force; mutagenic in rat TGR assay ([Jolly et al., 2024])
CN(N=O)C1CCC(c2ccc(Cl)c(Cl)c2)c2ccccc21 (centres unmarked) [NDSRI-21, N-(4-(3,4-Dichlorophenyl)-1,2,3,4-tetrahydronaphthalen-1-yl)-N-methylnitrous amide] | 100 | PC2 | – | – | 30min >60min | Mutagenic response in TA1535 ([3]; listed as N-nitroso-sertraline): negative; also recorded: not positive; Effect of length of preincubation on positive responses [8]: greater mutagenic responses with 30-min preincubations than with 60-min preincubations; Mutagenic response in WP2 uvrA (pKM101) ([5]; listed as N-nitroso-sertraline): positive only; also recorded: mutagenic; Effectiveness of hamster vs. rat S9s for each positive strain [5]: H only
CN(CCC(Oc1ccc(C(F)(F)F)cc1)c1ccccc1)N=O (centres unmarked) [NDSRI-22, N-Methyl-N-[3-phenyl-3-[4-(trifluoromethyl)phenoxy]propyl]nitrous amide] | – | – | 60min = 30min | 30min only | 30min >60min | More effective %S9 in S9 mix of more effective S9 (H or R) [3]: 30% only; Effectiveness of hamster vs. rat S9s for each positive strain [3]: H only; Effect of length of preincubation on positive responses ([8]; listed as N-nitroso-fluoxetine): greater mutagenic responses with 30-min preincubations than with 60-min preincubations; Ames response (all S9-mediated except where noted) (Ames tester strains): Positive; More effective %S9 in S9 mix of more effective S9 (H or R) ([4]; strain TA100, 10% vs 30% S9 in the S9 mix): 30% only; Effectiveness of hamster vs. rat S9s for each positive strain ([4]; strain TA100): H only; More effective %S9 in S9 mix of more effective S9 (H or R) ([6]; strain TA98, 10% vs 30% S9 in the S9 mix): 30% only; Effectiveness of time of preincubation for most effective S9 ([6]; strain TA98): 30min only; Effectiveness of hamster vs. rat S9s for each positive strain ([6]; strain TA98, H = hamster liver S9, R = rat liver S9): H only; Mutagenicity in TGR assay ([9]; in vivo): mutagenic in rat TGR assay
CC(C)[C@H](C(=O)O)N(Cc1ccc(-c2ccccc2-c2nn[nH]n2)cc1)N=O [NDSRI-25, (2R)-3-Methyl-2-[nitroso-[[4-[2-(2H-tetrazol-5-yl)phenyl]phenyl]methyl]amino]butanoic acid] | – | – | – | – | – | Ames response (all S9-mediated except where noted) (Ames tester strains): Negative; Mutagenicity in TGR assay ([9]; in vivo): Also negative in mouse TGR assay ([Glowienke et al., 2022])
CCCCCCOC(=O)NC(=N)c1ccc(N(Cc2nc3cc(C(=O)N(CCC(=O)OCC)c4ccccn4)ccc3n2C)N=O)cc1 [NDSRI-29, Ethyl 3-[[2-[[4-(N-hexoxycarbonylcarbamimidoyl)-N-nitrosoanilino]methyl]-1-methylbenzimidazole-5-carbonyl]-pyridin-2-ylamino]propanoate] | 400 | PC3 | – | – | – | –
CCN(N=O)C(C)C [SM-3, N-Ethyl-N-propan-2-ylnitrous amide] | 400 | PC3 | 60min = 30min | – | 60min = 30min | Mutagenicity/genotoxicity in mammalian cells in vitro [10]: Genotoxic in HepaRG, TK6 cells ([Li et al., 2022]; [Seo et al., 2023])
CC(C)N(N=O)C(C)C [SM-5, N,N-Di(propan-2-yl)nitrous amide] | 1500 | PC5 | 60min = 30min | – | – | Mutagenic response in TA1535 [3]: only positive strain; More effective %S9 in S9 mix of more effective S9 (H or R) [3]: 30% only; Effectiveness of hamster vs. rat S9s for each positive strain [3]: H only; Activation condition required for positive responses ([8]; no S9, 10% and 30% rat or hamster liver S9, all strains, listed as NDIPA): positives were seen only with one strain (TA1535) and under one activation condition (preincubation with 30% hamster S9 mixes); also recorded: dependent upon preincubation with 30% hamster S9; also recorded: exclusively mutagenic with hamster liver S9
CCN(N=O)c1ccccc1 [SM-8, N-Ethyl-N-phenylnitrous amide] | – | – | – | – | 60min ≥ 30min | Mutagenic response in TA1535 [3, 13]: negative; Mutagenic response in TA1535 ([3]; listed as NEPA): not positive; Effect of length of preincubation on positive responses [8]: benefited from a preincubation of 60 min compared with 30 min; Ames response (all S9-mediated except where noted) (Ames tester strains): Positive only with comutagen; Mutagenic response in WP2 uvrA (pKM101) [5, 13]: positive only; Mutagenic response in WP2 uvrA (pKM101) ([5]; listed as NEPA): mutagenic
O=NN1CCN(C2CCCC2)CC1 [SM-10, 1-Cyclopentyl-4-nitrosopiperazine] | 400 | PC3 | 60min = 30min | 30min ≥60min | 60min = 30min | Effectiveness of hamster vs. rat S9s for each positive strain [5]: H only; Mutagenicity/genotoxicity in mammalian cells in vitro [10]: Genotoxic in HepaRG cells ([Seo et al., 2023])
